Assay [1] relates to Jurkat (clone E6-1) cells with NFAT luciferase reporter. As to the kind of experiment: Jurkat reporter assay (NFAT Luciferase). In kind it is cell-based. The settings on record: Homo sapiens; Jurkat NFAT luciferase reporter cells, anti-CD3 stimulation, 6 hr; read-out: Jurkat NFAT EC50.
Assay [2] has as its target Recombinant human Cbl-b (aa 36-427) (Homo sapiens, UniProt Q13191). As to the kind of experiment: Cbl-b Biochemical Assay (TR-FRET). The settings on record: read-out: TR-FRET hCbl-b IC50.
For assay [3], the target named is T1, Recombinant human c-Cbl (aa 47-435) (Homo sapiens, UniProt P22681).
T1 sequence (P22681 47-435): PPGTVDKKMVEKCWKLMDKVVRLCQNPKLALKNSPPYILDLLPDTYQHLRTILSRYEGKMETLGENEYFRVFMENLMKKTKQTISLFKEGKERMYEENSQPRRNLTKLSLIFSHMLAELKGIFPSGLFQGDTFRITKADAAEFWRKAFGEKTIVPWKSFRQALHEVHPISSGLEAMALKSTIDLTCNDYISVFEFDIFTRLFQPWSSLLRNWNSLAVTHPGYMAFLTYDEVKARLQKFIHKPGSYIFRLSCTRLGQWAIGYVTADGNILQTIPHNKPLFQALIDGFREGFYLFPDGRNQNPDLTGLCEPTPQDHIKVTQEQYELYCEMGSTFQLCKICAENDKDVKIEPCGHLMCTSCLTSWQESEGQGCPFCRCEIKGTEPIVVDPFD
Kind of assay: c-Cbl Biochemical Assay (TR-FRET). The settings on record: hc-Cbl Biochemical Assay (TR-FRET); read-out: TR-FRET hcCbl IC50.

pEC50, pIC50: −log10 of the molar value. A value given as a limit tells only on which side of the number the result lay.

Chain of Recombinant human Cbl-b (aa 36-427) (Q13191 36-427): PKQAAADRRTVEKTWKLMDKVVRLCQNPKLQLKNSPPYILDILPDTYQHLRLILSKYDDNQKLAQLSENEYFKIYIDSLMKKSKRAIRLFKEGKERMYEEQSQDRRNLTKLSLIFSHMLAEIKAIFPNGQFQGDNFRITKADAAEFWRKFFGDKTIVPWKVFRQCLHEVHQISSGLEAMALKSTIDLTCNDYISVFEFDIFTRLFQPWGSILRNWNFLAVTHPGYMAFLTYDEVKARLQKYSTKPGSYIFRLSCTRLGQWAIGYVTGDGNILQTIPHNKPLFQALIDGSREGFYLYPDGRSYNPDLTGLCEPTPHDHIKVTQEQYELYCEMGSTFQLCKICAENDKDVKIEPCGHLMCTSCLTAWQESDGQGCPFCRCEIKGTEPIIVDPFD

As for `Cn1cnnc1-c1cc(F)ccc1-c1cccc(-c2nc3cc(CNC4CCC4)c(F)c(F)c3o2)c1` [JF-1, N-((6,7-Difluoro-2-(4′-fluoro-2′-(4-methyl-4H-1,2,4-triazol-3-yl)-[1,1′-biphenyl]-3-yl)benzo[d]oxazol-5-yl)methyl)cyclobutanamine], the negative-log EC50 (pEC50) in assay [1] is more than 6.70. In addition, the values for the pIC50 in assay [2] and in assay [3] were more than 6.70 and 6.00 to 6.70, respectively.

These data come from US20250163038A1, “CBL-B MODULATORS AND USES THEREOF” (Nimbus Clio, Inc., priority 2021, published 2025).
